Experimental data taken from patent US6387933B1, “Insecticidal compositions and insecticidal methods” (Sumitomo Chemical Company, Limited, priority 2001, dated 2002).

Key:
[1] = test system: silverleaf whiteflies; assay: Test Example 1: spray on cabbage seedlings infested with silverleaf whiteflies; format: in vivo; settings: 50 ppm; adults and larvae on cabbage seedling, 8 days after spray
Description: (§1) Cabbage seedlings planted in 3 ounces plastic cup were placed in a net cage containing many living silverleaf whiteflies for 24 hours, so that many silverleaf whiteflies became parasitic on the cabbage seedlings. A designated amount of each of acetamiprid on the market (commercial name, Mospilan water-soluble powder: produced by Nippon Soda), pyriproxyfen on the market (commercial name, Lano emulsifiable concentrate: produced by Sumitomo Chemical) and a mixture of acetamiprid and pyriproxyfen on the market were diluted with water, and then sprayed over the cabbage seedlings with spray gun. The number of silverleaf whiteflies (i.e., the total number of adults and larvae) surviving on the cabbage seedlings was examined just before and after 8 days from the treatment.

[2] = test system: silverleaf whiteflies; assay: Test Example 2: spray on cabbage seedlings infested with silverleaf whiteflies; format: in vivo; settings: 8 days after spray
Description: as §1

Row | Compound | Number of surviving insects/pot after 8 days [1] | Number of surviving insects/pot after 8 days ([2]; 5 ppm) | Number of surviving insects/pot after 8 days ([2]; 10 ppm) | Number of surviving insects/pot after 8 days ([2]; 50 ppm)
1 | C/C(=N\C#N)N(C)Cc1ccc(Cl)nc1 [acetamiprid, (E)-N^1-[(6-chloro-3-pyridyl)methyl]-N^2-cyano-N^1-methylacetamidine] | 69 insects/pot | 41 insects/pot | 16 insects/pot | 24 insects/pot
2 | CC(COc1ccc(Oc2ccccc2)cc1)Oc1ccccn1 (centres unmarked) [pyriproxyfen, 4-phenoxyphenyl 2-(2-pyridyloxy)propyl ether] | 21 insects/pot | 41 insects/pot | 114 insects/pot | 69 insects/pot
